Patent US20220288048A1, “PIMAVANSERIN FOR TREATING SCHIZOPHRENIA OR FOR TREATING PSYCHOSIS SECONDARY TO NEURODEGENERATIVE DISORDERS OR DEPRESSIVE DISORDER” (ACADIA Pharmaceuticals Inc., priority 2019, published 2022)

System: adult schizophrenia patients with a persistent inadequate response to their existing antipsychotic therapy
Test: 6-week study of pimavanserin or placebo added to existing antipsychotic treatment: efficacy rating scales
Type: in vivo, human
Description: The effect of pimavanserin as an adjunctive treatment in adult schizophrenia patients with a persistent inadequate response (i.e., partial responders) to their existing antipsychotic therapy was tested. 396 patients with moderate-to-severe psychotic symptoms were randomized to receive either pimavanserin or placebo added to existing antipsychotic treatment. […] Dosages of background oral antipsychotics could not be changed within four weeks of screening and dosages of long-acting injectables (LAI) could not be changed within 16 weeks of screening. […] Patients were administered a daily dose of pimavanserin or a placebo for six weeks. The dose started at 20 mg and could be adjusted to 34 mg or 10 mg between weeks 1 and 3. The majority of patients (56%) completed the study at the highest dose level. Patients were evaluated at baseline and on a weekly basis according to the clinical rating scale Positive and Negative Symptom Scale (PANSS). The PANSS is a 30-item, 7-point rating system that was developed to cover a range of negative symptoms not adequately measured by the Brief Psychiatric Rating Scale. It has sections that specifically measure positive symptoms, negative symptoms, and general psychopathology in schizophrenic subjects. The PANSS is widely used in trials of antipsychotic drug treatment, and has been formally validated for such use. A subset of 5 of the PANSS factors, the […] factors, were also evaluated. Other clinical rating scales that were assessed were the Clinical Global Impression Scale (CGI), Personal and Social Performance Scale (PSP), drug attitude inventory (DAI-10), Karolinska Sleepiness Scale (KSS), Calgary Depression Scale for Schizophrenia (CDSS), 36-item Short Form Physical Health evaluation ([…]) and 36-item Short Form Mental Health evaluation […].

[1] = FAS population, W6, Missing as non-Rsp
[2] = Full Analysis Set, OC, Week 6, listed as PIM
[3] = Full Analysis Set, added to existing antipsychotic
[4] = Sensitivity: MI in FAS, ANCOVA, W6
[5] = Sensitivity: MI in RAND, ANCOVA, W6
[6] = Sensitivity: OC in PP, MMRM, W6

In the case of `CC(C)COc1ccc(CNC(=O)N(Cc2ccc(F)cc2)C2CCN(C)CC2)cc1` [Pimavanserin, N-(4-Fluorophenylmethyl)-N-(1-methylpiperidin-4-yl)-N′-(4-(2-methylpropyloxy)phenylmethyl)carbamide], the “CGI-I 1 or 2 Rsp, (%)” value [1] was “(35.2) %”, the “CGI-I 1 or 2 Rsp, Diff in % (PIM − PBO)” value [1] was 2.1% and the “PANSS >= 20% Rsp, (%)” value [1] was “(56.5) %”. The “PANSS >= 20% Rsp, Diff in % (PIM − PBO)” value [1] was 5.9%, the “PANSS >= 30% Rsp, (%)” value [1] was “(36.8) %” and the “PANSS >= 30% Rsp, Diff in % (PIM − PBO)” value [1] was 2.6%. For the same compound, the “CGI-I 1 or 2 Rsp, (%)” value (FAS population, W6, OC) was “(39.3) %”, the “CGI-I 1 or 2 Rsp, Diff in % (PIM − PBO)” value (FAS population, W6, OC) was 4.9% and the “CGI-I no Chg or Worsened, (%)” value (FAS population, W6, OC) was “(27.2) %”. The “CGI-I no Chg or Worsened, Diff in % (PIM − PBO)” value (FAS population, W6, OC) was −0.9%, the “PANSS >= 20% Rsp, (%)” value (FAS population, W6, OC) was “(63.0) %” and the “PANSS >= 20% Rsp, Diff in % (PIM − PBO)” value (FAS population, W6, OC) was 10.6%. For the same compound, the “PANSS >= 30% Rsp, (%)” value (FAS population, W6, OC) was “(41.0) %”, the “PANSS >= 30% Rsp, Diff in % (PIM − PBO)” value (FAS population, W6, OC) was 5.6% and the “CGI-S score, Change from Baseline to Week 6, Mean (SE)” value (Full Analysis Set) was −0.8 (0.06). The “PANSS Marder negative factor score, Change from Baseline to Week 6, Mean (SE)” value (Full Analysis Set) was −3.3 (0.31), the “PANSS Marder negative factor score, Week 6, Mean (SE)” value (Full Analysis Set) was 19.2 (0.38) and the “PANSS negative symptoms scale sub-score, Change from Baseline to Week 6, Mean (SE)” value (Full Analysis Set) was −2.8 (0.28). For the same compound, the “PANSS negative symptoms scale sub-score, Week 6, Mean (SE)” value (Full Analysis Set) was 20.3 (0.35), the “CGI-S score, Diff in MMRM LSM (SE), pimavanserin − placebo” value (Full Analysis Set, OC, Week 6) was −0.1 (0.08) and the “CGI-S score, Effect Size (Cohen's d)” value (Full Analysis Set, OC, Week 6) was 0.200. For the same compound, the “PANSS Marder negative factor score, Diff in MMRM LSM (SE), pimavanserin − placebo” value (Full Analysis Set, OC, Week 6) was −0.9 (0.41), the “PANSS Marder negative factor score, Effect Size (Cohen's d)” value (Full Analysis Set, OC, Week 6) was 0.218 and the “PANSS negative symptoms scale sub-score, Diff in MMRM LSM (SE), pimavanserin − placebo” value (Full Analysis Set, OC, Week 6) was −0.7 (0.37). The “PANSS negative symptoms scale sub-score, Effect Size (Cohen's d)” value (Full Analysis Set, OC, Week 6) was 0.206, the “PANSS total score, Diff in MMRM LSM (SE), pimavanserin − placebo” value (Full Analysis Set, OC, Week 6) was −2.1 (1.24) and the “PANSS total score, Effect Size (Cohen's d)” value (Full Analysis Set, OC, Week 6) was 0.173. The “CGI-S score, Diff in MMRM LSM (SE), pimavanserin − placebo” value [2] was −0.1, the “CGI-S score, Effect Size (Cohen's d)” value [2] was 0.20 and the “PANSS Marder negative factor score, Diff in MMRM LSM (SE), pimavanserin − placebo” value [2] was −0.9. For the same compound, the “PANSS Marder negative factor score, Effect Size (Cohen's d)” value [2] was 0.22, the “PANSS negative symptoms scale sub-score, Diff in MMRM LSM (SE), pimavanserin − placebo” value [2] was −0.7 and the “PANSS negative symptoms scale sub-score, Effect Size (Cohen's d)” value [2] was 0.21. The “PANSS total score, Diff in MMRM LSM (SE), pimavanserin − placebo” value [2] was −2.1, the “PANSS total score, Effect Size (Cohen's d)” value [2] was 0.17 and the “CGI-S score, Week 6, Mean (SE)” value [3] was 3.8 (0.07). The “PANSS total score, Change from Baseline to Week 6, Mean (SE)” value [3] was −15.3 (0.93), the “PANSS total score, Week 6, Mean (SE)” value [3] was 72.7 (1.04) and the “Positive or negative symptoms, difference between treatment groups” value (North America) was “No significant differences”. For the same compound, the “Clinical Global Impressions-Severity, LS Mean Change at Week 6” value (North America subgroup) was −0.7, the “PANSS Total Score, LS Mean Change at Week 6” value (North America subgroup) was −14.2 and the “Clinical Global Impressions-Severity, Cohen's d Effect Size” value (North America subgroup, Week 6) was −0.144. The “Clinical Global Impressions-Severity, LS Mean (SE) Difference” value (North America subgroup, Week 6) was 0.1 (0.15), the “PANSS Total Score, Cohen's d Effect Size” value (North America subgroup, Week 6) was −0.229 and the “PANSS Total Score, LS Mean (SE) Difference” value (North America subgroup, Week 6) was 2.6 (2.74). The “PANSS Total, LSM Change from Baseline at W6” value (from here on “PANSS Total, LSM Change”) (Sensitivity: MI in FAS, ANCOVA) was −15.3, the “PANSS Total, Effect Size” value [4] was 0.16 and the “PANSS Total, Treatment group Comparison (PIM-PBO) LSM” value (shortened to “PANSS Total … (PIM-PBO) LSM”) [4] was −1.9. For the same compound, the “PANSS Total, LSM Change” value (Sensitivity: MI in RAND, ANCOVA) was −15.2, the “PANSS Total, Effect Size” value [5] was 0.15 and the “PANSS Total … (PIM-PBO) LSM” value [5] was −1.9. For the same compound, the “PANSS Total, LSM Change” value (Sensitivity: OC ANCOVA) was −15.3, the “PANSS Total, Effect Size” value (Sensitivity: OC ANCOVA, W6) was 0.16 and the “PANSS Total … (PIM-PBO) LSM” value (Sensitivity: OC ANCOVA, W6) was −1.9. For the same compound, the “PANSS Total, LSM Change” value (Sensitivity: OC in PP, MMRM) was −15.6, the “PANSS Total, Effect Size” value [6] was 0.19 and the “PANSS Total … (PIM-PBO) LSM” value [6] was −2.3.
